According to ChEMBL document CHEMBL1201862, “PubChem BioAssay data set” (2004):
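Test compounds were applied to cells in 96-well plates for 48 hours at 5 doses. GI50 is the concentration that inhibits growth by half.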 Calls of active or inactive are those of the source. Rule as the data show it: active = GI50 up to about 1.1 µM and inactive = higher.

Columns and labels:
Test in all cases: inhibition of tumour cell growth, NCI panel, 48 h
LOX IMVI = test system: LOX IMVI
UACC-62 = test system: UACC-62
Malme-3M = test system: Malme-3M
SF-295 = test system: SF-295
UO-31 = test system: UO-31
TK-10 = test system: TK-10
HL-60 = test system: HL-60
M14 = test system: M14
A549 = test system: A549
OVCAR-4 = test system: OVCAR-4
EKVX = test system: EKVX
SK-OV-3 = test system: SK-OV-3
NCI-H460 = test system: NCI-H460
OVCAR-5 = test system: OVCAR-5
ACHN = test system: ACHN
HT-29 = test system: HT-29
SR = test system: SR

Measured: GI50

O=C(O)C1=C(Cl)c2ccccc2S1(=O)=O
inactive: LOX IMVI > 100 µM | UACC-62 > 100 µM | Malme-3M > 100 µM | SF-295 > 100 µM | UO-31 > 100 µM | TK-10 > 100 µM | HL-60 > 100 µM | M14 > 100 µM | A549 > 100 µM | OVCAR-4 > 100 µM | EKVX > 100 µM | SK-OV-3 > 100 µM | NCI-H460 > 100 µM | OVCAR-5 > 100 µM

N#CCCN(CCC#N)c1ccc(/C=C2\N=C(c3cc([N+](=O)[O-])ccc3Cl)OC2=O)cc1
inactive: LOX IMVI 23.7 µM | UACC-62 62.4 µM | Malme-3M > 100 µM | SF-295 44.5 µM | UO-31 > 100 µM | HL-60 38.1 µM | M14 35.6 µM | ACHN > 100 µM | A549 > 100 µM | HT-29 > 100 µM | OVCAR-4 30 µM | EKVX > 100 µM | SR 33.3 µM | SK-OV-3 > 100 µM | NCI-H460 67.5 µM | OVCAR-5 > 100 µM

O=C1C(C2=[N+]([O-])c3ccccc3C2=O)=[N+]([O-])c2ccccc21
inactive: LOX IMVI 15.6 µM | UACC-62 > 10 µM | SF-295 40.7 µM | UO-31 43.1 µM | TK-10 35.4 µM | HL-60 19.4 µM | M14 16.6 µM | ACHN 24.8 µM | A549 26.4 µM | HT-29 32.8 µM | OVCAR-4 14.5 µM | EKVX 16.6 µM | SR 22.5 µM | SK-OV-3 53.2 µM | NCI-H460 23.1 µM | OVCAR-5 94.4 µM

COc1cc([C@@H]2c3cc4c(cc3[C@@H](NC(=O)c3cccc(C#N)c3)C3COC(=O)[C@@H]32)OCO4)cc(OC)c1O (some centres not stated)
active: LOX IMVI 0.398 µM | UACC-62 0.308 µM | Malme-3M 0.65 µM | SF-295 0.372 µM | HL-60 0.166 µM | M14 1.11 µM | ACHN 0.182 µM | A549 0.0178 µM | SK-OV-3 0.912 µM | NCI-H460 < 0.01 µM | OVCAR-5 1.1 µM
inactive: UO-31 5.47 µM | TK-10 3.29 µM | HT-29 1.85 µM | OVCAR-4 16.7 µM | EKVX 1.36 µM

[O-][Cl+3]([O-])([O-])[O-].c1ccc(-c2[o+]c(-c3ccccc3)c(-c3ccccc3)c(-c3ccccc3)c2-c2ccccc2)cc1
inactive: LOX IMVI > 100 µM | UACC-62 > 100 µM | Malme-3M > 100 µM | SF-295 > 100 µM | UO-31 > 100 µM | TK-10 > 100 µM | HL-60 > 100 µM | M14 > 100 µM | ACHN > 100 µM | A549 > 100 µM | HT-29 > 100 µM | OVCAR-4 > 100 µM | EKVX > 100 µM | SK-OV-3 > 100 µM | NCI-H460 > 100 µM | OVCAR-5 > 100 µM

Cc1ccc(Cn2c(C)nc3c2C(=O)c2ccccc2C3=O)cc1
active: LOX IMVI 0.597 µM | SR 0.331 µM | NCI-H460 0.387 µM
inactive: UACC-62 1.12 µM | Malme-3M 10.9 µM | SF-295 7.66 µM | UO-31 6.32 µM | TK-10 13 µM | HL-60 1.91 µM | M14 27.7 µM | ACHN 6.22 µM | A549 4.63 µM | HT-29 1.27 µM | OVCAR-4 13.3 µM | EKVX 18.2 µM | SK-OV-3 13.8 µM

CN(C(=O)c1ccc([N+](=O)[O-])cc1)c1ccccc1
inactive: LOX IMVI > 100 µM | UACC-62 > 10 µM | Malme-3M > 100 µM | SF-295 > 100 µM | UO-31 > 100 µM | M14 > 100 µM | ACHN > 100 µM | A549 > 100 µM | HT-29 > 100 µM | OVCAR-4 > 100 µM | EKVX > 100 µM | SK-OV-3 > 100 µM | NCI-H460 > 100 µM | OVCAR-5 > 100 µM

COc1cc(/C=C2\C(=O)N(C(=O)Cc3ccccc3)N=C2C)ccc1O
inactive: LOX IMVI > 100 µM | Malme-3M > 100 µM | SF-295 > 100 µM | UO-31 > 100 µM | TK-10 > 100 µM | HL-60 > 100 µM | M14 > 100 µM | ACHN > 100 µM | A549 > 100 µM | HT-29 > 10 µM | OVCAR-4 > 100 µM | EKVX > 100 µM | SR > 100 µM | OVCAR-5 > 100 µM

CC1(C)CC(/C=C2/OC(=O)c3ccccc32)=C(C#N)C(=O)O1
inactive: LOX IMVI > 100 µM | UACC-62 > 100 µM | Malme-3M > 100 µM | SF-295 > 100 µM | UO-31 > 100 µM | M14 > 100 µM | ACHN > 100 µM | A549 > 100 µM | HT-29 > 100 µM | OVCAR-4 18.6 µM | EKVX > 100 µM | SR > 100 µM | SK-OV-3 > 100 µM | NCI-H460 > 100 µM | OVCAR-5 > 100 µM
